In ChEMBL document CHEMBL1201862, “PubChem BioAssay data set” (2004):
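A five-concentration, 48-hour dose response in 96-well plates underlies each endpoint, interpolated linearly between surrounding concentrations. GI50 marks 50% less growth.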 Active and inactive are the calls of the source. No stated cut-off is given here; in the data, active = GI50 up to about 1.1 µM and inactive = higher.

Tests used:
Assay in all cases: NCI anticancer screen, dose series, 48 h
786-0 = test system: 786-0
A549 = test system: A549
CAKI-1 = test system: CAKI-1
DLD-1 = test system: DLD-1
HCT-116 = test system: HCT-116
HCT-15 = test system: HCT-15
HL-60 = test system: HL-60
HOP-92 = test system: HOP-92
LOX IMVI = test system: LOX IMVI
MOLT-4 = test system: MOLT-4
NCI-H226 = test system: NCI-H226
NCI-H460 = test system: NCI-H460
SK-MEL-2 = test system: SK-MEL-2
SNB-19 = test system: SNB-19
SR = test system: SR
U-251 = test system: U-251
UO-31 = test system: UO-31
MDA-N = test system: MDA-N
PC-3 = test system: PC-3
T47D = test system: T47D

Compound | GI50 (786-0) | GI50 (A549) | GI50 (CAKI-1) | GI50 (DLD-1) | GI50 (HCT-116) | GI50 (HCT-15) [µM] | GI50 (HL-60) | GI50 (HOP-92) | GI50 (LOX IMVI) | GI50 (MOLT-4) | GI50 (NCI-H226) | GI50 (NCI-H460) | GI50 (SK-MEL-2) | GI50 (SNB-19) | GI50 (SR) | GI50 (U-251) | GI50 (UO-31) | GI50 (MDA-N) | GI50 (PC-3) | GI50 (T47D)
CCOC(=O)N[C@H]1CCc2cc(O)c(OC)c(OC)c2-c2ccc(SC)c(=O)cc21 | 0.0304 µM (active) | 0.0289 µM (active) | 0.0266 µM (active) | 0.0351 µM (active) | < 0.0138 µM (active) | 0.0323 | < 0.01 µM (active) | 0.0103 µM (active) | 0.0234 µM (active) | 0.03 µM (active) | 0.266 µM (active) | 0.0172 µM (active) | < 0.0149 µM (active) | 0.0282 µM (active) | 0.0345 µM (active) | < 0.0162 µM (active) | 0.736 µM (active) | – | – | –
CN1CCN(CCSC2Cc3cc(Cl)ccc3Sc3ccccc32)CC1 (stereo unspecified) | 4.55 µM (inactive) | 6.05 µM (inactive) | 6.67 µM (inactive) | 3.7 µM (inactive) | 5.69 µM (inactive) | 4.59 | 1.73 µM (inactive) | 4.5 µM (inactive) | 2.28 µM (inactive) | 2.44 µM (inactive) | 16.9 µM (inactive) | 4.95 µM (inactive) | 1.86 µM (inactive) | 13.9 µM (inactive) | 5.07 µM (inactive) | 5.4 µM (inactive) | 8.11 µM (inactive) | – | – | –
Cn1c2c(cc(-c3ccccc3)c1=O)COc1ccccc1-2 | 39.3 µM (inactive) | 33.3 µM (inactive) | 37.5 µM (inactive) | 36.6 µM (inactive) | 16.9 µM (inactive) | 32.1 | 29.8 µM (inactive) | 28.8 µM (inactive) | 15.2 µM (inactive) | 23.1 µM (inactive) | 32.5 µM (inactive) | 20.3 µM (inactive) | 14 µM (inactive) | 40.9 µM (inactive) | 39.1 µM (inactive) | 41.6 µM (inactive) | 27.5 µM (inactive) | – | – | –
FC(F)(F)c1ccccc1C1SCc2nc3ccccc3n21 (stereo unspecified) | > 100 µM (inactive) | 41.6 µM (inactive) | 32.6 µM (inactive) | 52.2 µM (inactive) | 39.1 µM (inactive) | – | 10.2 µM (inactive) | 4.67 µM (inactive) | – | 23.9 µM (inactive) | 39.4 µM (inactive) | – | 99.3 µM (inactive) | > 100 µM (inactive) | 27.9 µM (inactive) | 88.5 µM (inactive) | 49.7 µM (inactive) | – | – | –
COc1ccc(NC(=O)C(=O)C2CNC(=O)NC2=O)c(OC)c1 (stereo unspecified) | > 100 µM (inactive) | > 100 µM (inactive) | > 100 µM (inactive) | > 100 µM (inactive) | > 100 µM (inactive) | > 100 | > 100 µM (inactive) | > 100 µM (inactive) | > 100 µM (inactive) | > 100 µM (inactive) | > 100 µM (inactive) | > 100 µM (inactive) | > 100 µM (inactive) | > 100 µM (inactive) | > 100 µM (inactive) | > 100 µM (inactive) | > 100 µM (inactive) | – | – | –
CN(C)CCC(=O)N1C/C(=C\c2ccc(Cl)c(Cl)c2)C(=O)/C(=C/c2ccc(Cl)c(Cl)c2)C1 | 0.125 µM (active) | 0.531 µM (active) | 0.394 µM (active) | 0.157 µM (active) | 0.119 µM (active) | 0.184 | 0.0435 µM (active) | 0.394 µM (active) | 0.1 µM (active) | 0.19 µM (active) | 0.705 µM (active) | 0.479 µM (active) | 1.63 µM (inactive) | 0.287 µM (active) | 0.0746 µM (active) | 0.149 µM (active) | 0.336 µM (active) | 0.213 µM (active) | 0.102 µM (active) | 0.471 µM (active)
Cc1ccc(C(=O)c2nnc(C(=O)c3ccc(C)cc3)nn2)cc1 | 28.2 µM (inactive) | 73.5 µM (inactive) | 74.3 µM (inactive) | 43.2 µM (inactive) | 57.5 µM (inactive) | 76 | 19.7 µM (inactive) | 32.1 µM (inactive) | 17.6 µM (inactive) | 34.1 µM (inactive) | 56 µM (inactive) | 18.4 µM (inactive) | 38.4 µM (inactive) | 41.5 µM (inactive) | 5.45 µM (inactive) | 40.7 µM (inactive) | 39.2 µM (inactive) | – | – | –
Cc1ccc(C(=O)N(C2CCCCC2)C2CCCCC2)cc1/N=N/N(C)C | 15.3 µM (inactive) | 13.7 µM (inactive) | 12.9 µM (inactive) | 14.7 µM (inactive) | 5.51 µM (inactive) | 14.1 | 6.07 µM (inactive) | 11 µM (inactive) | 15.8 µM (inactive) | 14.4 µM (inactive) | 19.7 µM (inactive) | 15.1 µM (inactive) | 2.76 µM (inactive) | 12.6 µM (inactive) | 18.2 µM (inactive) | 18.4 µM (inactive) | 12.8 µM (inactive) | 15 µM (inactive) | 10.4 µM (inactive) | 18 µM (inactive)
O=C(O)c1ccc(/N=N/c2cc(S(=O)(=O)O)c3cccnc3c2O)cc1 | > 100 µM (inactive) | > 100 µM (inactive) | > 100 µM (inactive) | 63.4 µM (inactive) | > 100 µM (inactive) | > 100 | > 100 µM (inactive) | > 100 µM (inactive) | > 100 µM (inactive) | > 100 µM (inactive) | > 100 µM (inactive) | > 100 µM (inactive) | > 100 µM (inactive) | > 100 µM (inactive) | > 100 µM (inactive) | > 100 µM (inactive) | > 100 µM (inactive) | – | – | –
Cc1ccc(-c2c(N)nc(NC#N)nc2CCC(=O)Nc2ccccc2[N+](=O)[O-])cc1 | > 100 µM (inactive) | > 100 µM (inactive) | > 100 µM (inactive) | > 100 µM (inactive) | > 100 µM (inactive) | > 100 | > 100 µM (inactive) | > 100 µM (inactive) | > 100 µM (inactive) | > 100 µM (inactive) | > 100 µM (inactive) | > 100 µM (inactive) | > 100 µM (inactive) | > 100 µM (inactive) | > 100 µM (inactive) | > 100 µM (inactive) | > 100 µM (inactive) | – | – | –
CCOC(=O)N1c2c(ccn2C)-c2ccn(C)c2N1C(=O)OCC | 11.1 µM (inactive) | 20.9 µM (inactive) | 18.3 µM (inactive) | 13.6 µM (inactive) | 14.8 µM (inactive) | 12.9 | 5.09 µM (inactive) | 20.6 µM (inactive) | 12.9 µM (inactive) | 6.18 µM (inactive) | 19.7 µM (inactive) | 19.4 µM (inactive) | 21.4 µM (inactive) | > 10 µM (inactive) | 15.8 µM (inactive) | – | 19.8 µM (inactive) | – | – | –
CC(=O)C1=CCC2c3[nH]c4ccccc4c3CCN2C1 (stereo unspecified) | 35.1 µM (inactive) | > 100 µM (inactive) | – | 70.3 µM (inactive) | 45 µM (inactive) | 50.8 | 45.3 µM (inactive) | 36.3 µM (inactive) | 58.7 µM (inactive) | 42.1 µM (inactive) | > 100 µM (inactive) | 45 µM (inactive) | 66.4 µM (inactive) | > 100 µM (inactive) | 31.8 µM (inactive) | 54.5 µM (inactive) | > 100 µM (inactive) | – | – | –
O=C(N[C@H](CO)[C@H](O)c1ccc([N+](=O)[O-])cc1)C(Cl)Cl [CHLORAMPHENICOL] | > 100 µM (inactive) | > 100 µM (inactive) | > 100 µM (inactive) | > 100 µM (inactive) | > 100 µM (inactive) | > 100 | > 100 µM (inactive) | 85.3 µM (inactive) | > 100 µM (inactive) | > 100 µM (inactive) | > 100 µM (inactive) | > 100 µM (inactive) | > 100 µM (inactive) | > 100 µM (inactive) | > 100 µM (inactive) | > 100 µM (inactive) | > 100 µM (inactive) | > 100 µM (inactive) | > 100 µM (inactive) | –
CN(C)/N=N/c1[nH]cnc1C(N)=O [DACARBAZINE] | 87.9 µM (inactive) | 96.2 µM (inactive) | 19 µM (inactive) | 56.9 µM (inactive) | 38.5 µM (inactive) | 94.6 | 14.9 µM (inactive) | 30.3 µM (inactive) | 11.7 µM (inactive) | 20.7 µM (inactive) | 75.2 µM (inactive) | 49.5 µM (inactive) | 9.82 µM (inactive) | > 99.1 µM (inactive) | 18.9 µM (inactive) | 92 µM (inactive) | 32.1 µM (inactive) | > 86.1 µM (inactive) | > 96.4 µM (inactive) | > 92.3 µM (inactive)
O=C(O)CS [THIOGLYCOLIC ACID] | > 100 µM (inactive) | > 100 µM (inactive) | > 100 µM (inactive) | > 100 µM (inactive) | > 100 µM (inactive) | > 100 | > 100 µM (inactive) | > 100 µM (inactive) | > 100 µM (inactive) | > 100 µM (inactive) | > 100 µM (inactive) | > 100 µM (inactive) | > 100 µM (inactive) | > 100 µM (inactive) | > 100 µM (inactive) | > 100 µM (inactive) | > 100 µM (inactive) | – | – | –
